Laboratory results from PMC6274563, “Synthesis and In Vitro Anti Leishmania amazonensis Biological Screening of Morita-Baylis-Hillman Adducts Prepared from Eugenol, Thymol and Carvacrol” (Molecules, 2016).
Where two headings read alike, the source gives them in different places.

Assays:
human red blood cells = assay: Haemolytic assay; assay type: cell-based; details: for SIrb (selectivity index on red blood cell) = HC50/IC50: HC50 on red blood cells / IC50 on L. amazonensis promastigotes
[1] = system: promastigotes of Leishmania amazonensis (IFLA/BR/67/PH8); assay: Antileishmanial activity against promastigotes (MTT viability); assay type: cell-based
Description: The promastigote viabilities were determined by the ability of living cells to reduce the yellow MTT (3-(4,5-dimethylthiazol-2-yl)-2,5-diphenyltetrazolium bromide, a tetrazole) to purple formazan. Promastigote forms of Leishmania amazonensis (IFLA/BR/67/PH8) in the log phase of growth were incubated at 25 °C in 96-well cellular culture plates (TPP, Trasadingen, Switzerland) with 1 × 10^5 cells/well in 100 μL Schneider’s Drosophila medium supplemented with 20% of FBS in the presence or absence of different concentrations of compounds 4–15. The growth of promastigotes forms was evaluated simultaneously in the presence of Glucantime®, as reference drug. After 72 h of incubation, […] of a 5 mg·mL^−1 MTT solution was added. After 4 h of incubation at 25 °C, the formed product formazan was dissolved in […] of sodium dodecyl sulfate (SDS) at 10% for 24 h, and the absorbance was measured by spectrophotometry at a 545 nm wavelength. The percentage viability was calculated from the ratio of OD readings in the wells with compounds versus the wells without compounds × 100. The concentration that inhibited 50% of growth (IC50) was determined by regression analysis using the SPSS 8.0 software for Windows (IBM, New York, NY, USA). All experiments were performed at least three times, and each experiment was performed in triplicate. […]

[2] = haemolysis of human red blood cells
[3] = Leishmania amazonensis, promastigotes of L. amazonensis, 72 h incubation, MTT, average of three independent experiments ± standard error of the mean, read-out: IC50

Compound	SIrb (selectivity index on red blood cell) = HC50/IC50 (human red blood cells)	HC50 (human red blood cells; [2]) [µM]	IC50 [1, 3] [µM]	further results
C[C@@H]1[C@H](O)[C@@H](C)/C=C/C=C/C=C/C=C/C=C/C=C/C=C/[C@H](O[C@@H]2O[C@H](C)[C@@H](O)[C@H](N)[C@@H]2O)C[C@@H]2O[C@](O)(C[C@@H](O)C[C@@H](O)[C@H](O)CC[C@@H](O)C[C@@H](O)CC(=O)O[C@H]1C)C[C@H](O)[C@H]2C(=O)O [AmphotericinB, amphotericin B]	22.34	11.61	0.52 ± 0.03	
C=CCc1ccc(O)c(OC)c1 [Compound 4, eugenol]	>5.18	>400		IC50 ([1]; Leishmania amazonensis, 72 h): 77.2 ± 1.77 µM
Cc1ccc(C(C)C)c(O)c1 [Compound 5, thymol]			115 ± 5.77	
Cc1ccc(C(C)C)cc1O [Compound 6, carvacrol]				IC50 ([1]; Leishmania amazonensis, 72 h): 138 ± 6.91 µM
C=CCc1ccc(OC(=O)C(=C)C(O)c2ccc([N+](=O)[O-])cc2)c(OC)c1 (stereo not shown) [Compound 7, 4-Allyl-2-methoxyphenyl 2-(hydroxy(4-nitrophenyl)methyl)acrylate]	>45.71	>400	8.75 ± 0.44	
C=CCc1ccc(OC(=O)C(=C)C(O)c2cccc([N+](=O)[O-])c2)c(OC)c1 (stereo not shown) [Compound 8, 4-Allyl-2-methoxyphenyl-2-(hydroxy(3-nitrophenyl)methyl)acrylate]	>38.13	>400	10.5 ± 0.52	
C=CCc1ccc(OC(=O)C(=C)C(O)c2ccccc2[N+](=O)[O-])c(OC)c1 (stereo not shown) [Compound 9, 4-Allyl-2-methoxyphenyl 2-(hydroxy(2-nitrophenyl)methyl)acrylate]	>84.92	>400	4.71 ± 0.24	
C=C(C(=O)Oc1cc(C)ccc1C(C)C)C(O)c1ccc([N+](=O)[O-])cc1 (stereo not shown) [Compound 10, 2-Isopropyl-5-methylphenyl 2-(hydroxy(4-nitrophenyl)methyl)acrylate]			11.4 ± 0.57	
C=C(C(=O)Oc1cc(C)ccc1C(C)C)C(O)c1cccc([N+](=O)[O-])c1 (stereo not shown) [Compound 11, 2-Isopropyl-5-methylphenyl 2-(hydroxy(3-nitrophenyl)methyl)acrylate]			10.6 ± 0.53	
C=C(C(=O)Oc1cc(C)ccc1C(C)C)C(O)c1ccccc1[N+](=O)[O-] (stereo not shown) [Compound 12, 2-Isopropyl-5-methylphenyl 2-(hydroxy(2-nitrophenyl)methyl)acrylate]			5.91 ± 0.3	
C=C(C(=O)Oc1cc(C(C)C)ccc1C)C(O)c1ccc([N+](=O)[O-])cc1 (stereo not shown) [Compound 13, 5-Isopropyl-2-methylphenyl 2-(hydroxy(4-nitrophenyl)methyl)acrylate]			18.1 ± 0.9	
C=C(C(=O)Oc1cc(C(C)C)ccc1C)C(O)c1cccc([N+](=O)[O-])c1 (stereo not shown) [Compound 14, 5-Isopropyl-2-methylphenyl 2-(hydroxy(3-nitrophenyl)methyl)acrylate]			22.3 ± 1.12	
C=C(C(=O)Oc1cc(C(C)C)ccc1C)C(O)c1ccccc1[N+](=O)[O-] (stereo not shown) [Compound 15, 5-Isopropyl-2-methylphenyl 2-(hydroxy(2-nitrophenyl)methyl)acrylate]			13.6 ± 0.68	
Glucantime^®				HC50 (human red blood cells): 1175.02 µM; IC50 ([1]; promastigotes of L. amazonensis, 72 h incubation, MTT, average of three independent experiments ± standard error of the mean, read-out: IC50): 1630 ± 437 µM
